In US6855843B2, “Inhibitors of α4 mediated cell adhesion” (Tanabe Seiyaku Co., Ltd., priority 1998, dated 2005) one finds IC50 data, which are given here for 29 molecules.

pIC50: −log10 of the molar value.

The test deals with T1, α4β7 (adhesion of RPMI cells to CS-1) (Homo sapiens, UniProt P13612+P26010).
T1 construct: endogenous in cells
T1 sequence (P13612 34-1032): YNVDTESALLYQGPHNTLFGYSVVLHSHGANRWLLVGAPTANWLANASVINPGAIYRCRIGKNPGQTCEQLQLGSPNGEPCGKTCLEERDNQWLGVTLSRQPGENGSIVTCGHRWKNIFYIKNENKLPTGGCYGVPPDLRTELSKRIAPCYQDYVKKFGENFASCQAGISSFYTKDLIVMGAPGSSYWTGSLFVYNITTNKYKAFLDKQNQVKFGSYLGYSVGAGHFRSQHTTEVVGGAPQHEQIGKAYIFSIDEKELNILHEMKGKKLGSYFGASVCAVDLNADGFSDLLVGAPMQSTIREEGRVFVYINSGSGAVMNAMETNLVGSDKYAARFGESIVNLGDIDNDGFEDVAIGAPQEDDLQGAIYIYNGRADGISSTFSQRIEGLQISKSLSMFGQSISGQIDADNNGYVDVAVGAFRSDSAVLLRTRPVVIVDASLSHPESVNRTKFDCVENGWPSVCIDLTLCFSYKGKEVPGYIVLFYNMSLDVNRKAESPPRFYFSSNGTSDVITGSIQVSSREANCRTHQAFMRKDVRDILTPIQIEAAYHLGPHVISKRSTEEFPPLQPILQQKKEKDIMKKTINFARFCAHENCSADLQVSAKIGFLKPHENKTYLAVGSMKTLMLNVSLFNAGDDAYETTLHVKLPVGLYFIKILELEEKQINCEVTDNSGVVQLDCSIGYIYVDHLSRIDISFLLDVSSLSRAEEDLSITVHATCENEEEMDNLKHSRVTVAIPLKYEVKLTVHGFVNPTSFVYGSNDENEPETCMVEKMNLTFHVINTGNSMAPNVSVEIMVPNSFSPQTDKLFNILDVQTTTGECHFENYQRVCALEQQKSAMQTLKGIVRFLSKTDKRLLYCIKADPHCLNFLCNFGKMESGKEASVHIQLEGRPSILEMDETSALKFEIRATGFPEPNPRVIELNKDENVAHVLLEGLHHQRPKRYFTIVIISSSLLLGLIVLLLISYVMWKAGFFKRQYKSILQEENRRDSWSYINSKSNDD
T1 sequence (P26010 20-798): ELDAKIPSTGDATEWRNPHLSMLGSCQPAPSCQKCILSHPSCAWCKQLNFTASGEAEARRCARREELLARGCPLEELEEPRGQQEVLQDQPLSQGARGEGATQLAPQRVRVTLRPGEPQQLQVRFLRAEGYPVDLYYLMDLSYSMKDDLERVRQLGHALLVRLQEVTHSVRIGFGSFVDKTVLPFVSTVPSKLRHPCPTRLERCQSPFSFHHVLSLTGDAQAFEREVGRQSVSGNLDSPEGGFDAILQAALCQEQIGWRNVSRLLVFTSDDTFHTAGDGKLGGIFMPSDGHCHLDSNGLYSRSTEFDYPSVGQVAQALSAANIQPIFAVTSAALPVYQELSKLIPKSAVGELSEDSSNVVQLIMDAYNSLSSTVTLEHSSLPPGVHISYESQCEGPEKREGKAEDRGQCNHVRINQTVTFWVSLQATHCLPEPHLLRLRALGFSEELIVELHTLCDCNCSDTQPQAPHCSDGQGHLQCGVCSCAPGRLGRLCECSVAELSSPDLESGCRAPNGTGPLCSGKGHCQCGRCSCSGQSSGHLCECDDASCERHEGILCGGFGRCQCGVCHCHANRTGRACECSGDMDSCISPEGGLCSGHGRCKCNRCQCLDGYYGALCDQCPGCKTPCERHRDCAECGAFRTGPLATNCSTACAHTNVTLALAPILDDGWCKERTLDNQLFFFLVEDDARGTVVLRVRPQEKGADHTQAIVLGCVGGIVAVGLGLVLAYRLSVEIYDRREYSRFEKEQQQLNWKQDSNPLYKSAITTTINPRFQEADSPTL
The test is described as follows: RPMI-CS-1 cell adhesion assay. Type of test: cell-based. The settings on record: adhesion of RPMI B-cell line (expresses α4β7) to CS-1 peptide coated microwells; read-out: RPMI-CS-1 IC50 value range. The protocol: RPMI-CS-1 Cell Adhesion Assay:
The test compounds were added in increasing concentrations to RPMI cells and then the cell-compound mixture was added to CS-1 coated microwells. The plates were incubated, washed and the percentage of attached cells were quantitated.
The CS-1 derived peptide, […], and the scrambled control peptide, […], were synthesized at Tanabe Research Laboratories, USA, Inc. on a Beckman 990 synthesizer using t-Boc methodology. […] Microtiter plates were coated with 20 μg/ml human serum albumin (HSA) for 2 hours at room temperature, washed once with PBS and derivatized with 10 μg/ml SPDP for 1 hour. […] Unbound peptide was removed from the plates by washing with PBS. To block non-reacted sites, the plates were coated with 100 μl of a 2.5 mg/ml BSA solution in PBS for one hour at 37° C. 100 μl of RPMI cells (2.5×10^6 cells/ml) in Dulbecco's Modified Eagles Medium (DMEM) plus 0.25% ovalbumin were added to peptide coated dishes and incubated for 1 hour at 37° C. […] To do this, the enzyme substrate p-nitrophenyl-N-acetyl-β-D-glucoseaminide is dissolved at 7.5 mM in 0.1 M citrate buffer pH 5 and then mixed with an equal volume of 0.5% Triton X100. 50 μl of the substrate solution was added to the plates and the plates were incubated at 37° C. for 60 minutes.
In this assay, IC50 value ranges (μM) are depicted by A, B, C and D. These ranges as follows. D>5≧C>1≧B>0.3≧A
As a reminder, the pIC50 is the IC50 on a negative log10 scale, so that one unit is a factor of ten. Consider `CCOc1cccc(OC)c1-c1ccc(C[C@H](NC(=O)c2c(Cl)cccc2Cl)C(=O)O)cc1` [Example 14, N-(2,6-Dichlorobenzoyl)-4-(2-ethoxy-6-methoxyphenyl)-L-phenylalanine], for which the pIC50 is more than 6.52. With `COC(=O)Nc1cccc(-c2ccc(C[C@H](NC(=O)c3c(Cl)cccc3Cl)C(=O)O)cc2)c1` [Example 125], the pIC50 was 5.30 to 6.00. Take `O=C(N[C@@H](Cc1ccc(-c2ccccc2)cc1)C(=O)O)c1ccc(F)cc1Cl` [Example 109]: the negative logarithm of the IC50 (pIC50) was less than 5.30.

For the molecule `COc1cccc(OC)c1-c1ccc(C[C@H](NC(=O)c2c(Cl)cc(-c3ccccn3)cc2Cl)C(=O)O)cc1` [Example 312], the negative-log IC50 (pIC50) was more than 6.52. Then `CCOC(=O)[C@H](Cc1ccc(-c2c(OC)cc(CN3CCN(C)CC3)cc2OC)cc1)NC(=O)c1c(F)cccc1F` [Example 356], with more than 6.52; and `COc1ccccc1-c1ccc(C[C@H](NC(=O)c2ccc(NS(=O)(=O)c3ccc(C)cc3)cc2Cl)C(=O)O)cc1` [Example 188, N-[2-Chloro-4-(tosylamino)benzoyl]-4-(2-methoxyphenyl)-L-phenylalanine], with more than 6.52; and `NCc1ccccc1-c1ccc(C[C@H](NC(=O)c2c(Cl)cccc2Cl)C(=O)O)cc1` [Example 47, N-(2,6-Dichlorobenzoyl)-4-[2-(aminomethyl)phenyl]-L-phenylalanine], with more than 6.52. Then `COc1cc(CNCCO)cc(OC)c1-c1ccc(C[C@H](NC(=O)c2c(Cl)cccc2Cl)C(=O)O)cc1` [Example 246], with more than 6.52. As for `O=C(N[C@@H](Cc1ccc(-c2ccccc2CNc2ccccc2)cc1)C(=O)O)c1c(Cl)cccc1Cl` [Example 46, N-(2,6-Dichlorobenzoyl)-4-[2-[(phenylamino)methyl]phenyl]-L-phenylalanine], the figure is more than 6.52. As for `COc1cccc(OC)c1-c1ccc(C[C@H](NC(=O)c2c(Cl)cc(NS(=O)(=O)C(F)(F)F)cc2Cl)C(=O)O)cc1` [Example 184, N-[2,6-Dichloro-4-[(trifluoromethanesulfonyl)amino]benzoyl]-4-(2,6-dimethoxyphenyl)-L-phenylalanine], the negative-log IC50 (pIC50) was more than 6.52. With `COc1cc(C#N)c(-c2ccc(C[C@H](NC(=O)c3c(Cl)cccc3Cl)C(=O)O)cc2)c(OC)c1` [Example 142], the pIC50 is more than 6.52. For `O=C(N[C@@H](Cc1ccc(-c2c(Cl)cccc2Cl)cc1)C(=O)O)c1c(Cl)cccc1Cl` [Example 141], the negative logarithm of the IC50 (pIC50) is 6.00 to 6.52. On to `O=C(N[C@@H](Cc1ccc(-c2ccccc2CNCc2ccccc2)cc1)C(=O)O)c1c(Cl)cccc1Cl` [Example 48, N-(2,6-Dichlorobenzoyl)-4-[2-[(benzylamino)methyl]phenyl]-L-phenylalanine], for which the pIC50 is 5.30 to 6.00. As for `CC(=O)Nc1ccccc1-c1ccc(C[C@H](NC(=O)c2c(Cl)cccc2Cl)C(=O)O)cc1` [Example 25], the figure is 6.00 to 6.52; as for `COc1ccccc1-c1ccc(C[C@H](NC(=O)c2c(F)cccc2Cl)C(=O)O)cc1` [Example 86], more than 6.52; as for `COc1ccccc1-c1ccc(C[C@H](NC(=O)c2c(Cl)cccc2Cl)C(=O)O)cc1C(C)O` (stereo partly drawn) [Example 73, N-(2,6-Dichlorobenzoyl)-3-(1-hydroxyethyl)-4-(2-methoxyphenyl)-L-phenylalanine], more than 6.52.

With `COc1cc(CN2CCS(=O)(=O)CC2)cc(OC)c1-c1ccc(C[C@H](NC(=O)c2c(Cl)cccc2Cl)C(=O)O)cc1` [Example 263A, N-(2,6-dichlorobenzoyl)-4-[2,6-dimethoxy-4-(thiomorpholinomethyl)phenyl]-L-phenylalanine S,S-dioxide], the pIC50 is more than 6.52. Then `COc1cc(OCc2ccncc2)cc(OC)c1-c1ccc(C[C@H](NC(=O)c2c(Cl)cccc2Cl)C(=O)O)cc1` [Example 348], with more than 6.52. As for `COc1ccccc1-c1ccc(C[C@H](NC(=O)c2ccc(NS(=O)(=O)c3cccs3)cc2Cl)C(=O)O)cc1` [Example 191, N-[2-Chloro-4-[(2-thienylsulfonyl)amino]benzoyl]-4-(2-methoxyphenyl)-L-phenylalanine], the figure is more than 6.52; as for `CCOc1cccc(OCC)c1-c1ccc(C[C@H](NC(=O)c2c(Cl)cccc2Cl)C(=O)O)cc1` [Example 13, N-(2,6-Dichlorobenzoyl)-4-(2,6-diethoxyphenyl)-L-phenylalanine], more than 6.52. As for `NC(=O)c1ccccc1-c1ccc(C[C@H](NC(=O)c2c(Cl)cccc2Cl)C(=O)O)cc1` [Example 60], the figure is 6.00 to 6.52; as for `COc1cc(CN2CCN(C(C)=O)CC2)cc(OC)c1-c1ccc(C[C@H](NC(=O)c2c(Cl)cccc2Cl)C(=O)O)cc1` [Example 251], more than 6.52; as for `COc1ccccc1-c1ccc(C[C@H](NC(=O)c2ccc(NS(C)(=O)=O)cc2Cl)C(=O)O)cc1` [Example 64, N-[2-Chloro-4-(methanesulfonylamino)benzoyl]-4-(2-methoxyphenyl)-L-phenylalanine], more than 6.52. On to `COc1cccc(OC)c1-c1ccc(C[C@H](NC(=O)c2c(Cl)cccc2Cl)c2nnn[nH]2)cc1` [Example 270, (1S)-N-(2,6-Dichlorobenzoyl)-2-[4-(2,6-dimethoxyphenyl)phenyl]-1-(1H-tetrazol-5-yl) ethylamine], for which the negative-log IC50 (pIC50) is more than 6.52. Then `CCOc1ccc2c(c1-c1ccc(C[C@H](NC(=O)c3c(Cl)cccc3Cl)C(=O)O)cc1)OCO2` [Example 237, N-(2,6-Dichlorobenzoyl)-4-(2,3-methylenedioxy-6-ethoxyphenyl)-L-phenylalanine], with more than 6.52; and `COC(=O)[C@H](Cc1ccc(-c2ccccc2CNCc2ccccc2)cc1)NC(=O)c1c(Cl)cccc1Cl` [Example 114], with 6.00 to 6.52; and `COc1ccccc1-c1ccc(C[C@H](NC(=O)c2ccc(NS(=O)(=O)C(F)(F)F)cc2Cl)C(=O)O)cc1` [Example 65, N-[2-Chloro-4-(trifluoromethanesulfonylamino)benzoyl]-4-(2-methoxyphenyl)-L-phenylalanine], with more than 6.52. `CSc1ccccc1-c1ccc(C[C@H](NC(=O)c2c(Cl)cccc2Cl)C(=O)O)cc1` [Example 143]: the pIC50 is more than 6.52. Then `COc1ccccc1-c1ccc(C[C@H](NC(=O)c2ccc(NC(=S)NCc3ccccc3)cc2Cl)C(=O)O)cc1` [Example 194, N-[4-(3-Benzylthioureido)-2-chlorobenzoyl]-4-(2-methoxyphenyl)-L-phenylalanine], with 5.30 to 6.00.
